In article PMC8296573, “Synthesis and Biological Evaluation of Fingolimod Derivatives as Antibacterial Agents” (ACS Omega, 2021):
In brackets after ≈: the same amount, converted by molar mass. Read-outs that look alike come from different tables or passages of the source.

Key:
S. aureus ATCC 12598 = test: Antibacterial activity, pre-exposure; format: cell-based, Staphylococcus aureus; details: for Average inhibition %, biofilms viability / Average inhibition %, planktonic cells viability / inhibition at 5 µM / inhibition at 10 µM / inhibition at 15 µM / inhibition at 25 µM: S. aureus ATCC 12598, pre-exposure, ± SD; for inhibition at 5 µM / inhibition at 10 µM / inhibition at 15 µM / inhibition at 25 µM / MIC: Staphylococcus aureus, ATCC12598; for MIC: pre-exposure, 18 h, read-out: MIC S. aureus ATCC 12598
Procedure: (§1) The antimicrobial activity was assessed in a similar way for the initial screening and the dose–response evaluation against different bacterial strains. With the exception of the post-exposure experiment, the compounds were added to the wells along with the bacteria to test the ability of compounds to prevent bacterial growth and biofilm formation (pre-exposure). The compounds were diluted in DMSO and plated directly in 96-well plates before adding the bacterial culture, and plates were incubated for 18 h under aerobic conditions at 37 °C with shaking (220 rpm). The antibacterial activity of the compounds was assessed on planktonic cells and biofilms separately using two different measurements for each: optical density (turbidity) and resazurin reduction (viability) on planktonic cells and resazurin followed by a crystal violet staining assay (total biomass) on biofilms, as described in the following sections.
(§2) The resazurin staining was performed according to the protocol previously optimized with a few modifications.[46] Briefly, the planktonic solution was first transferred into a new 96-well plate and the OD of the planktonic solution was measured using a Varioskan LUX Multimode microplate reader (Thermo Scientific, Vantaa, Finland). Then, 10 μL of a 400 μM resazurin (R7017, Sigma-Aldrich, St. Louis, MO) diluted in phosphate-buffered saline (PBS) (Thermo Fisher Scientific, MA) was added to the wells (for a final resazurin concentration of 20 μM). The plate was incubated in the dark with shaking (220 rpm) for about 3–10 min at room temperature with S. aureus and A. baumannii (until the bacteria controls turned pink) or for 20 min at 37 °C with P. aeruginosa. Fluorescence was measured at λex = 560 nm and λem = 590 nm using the top optics of the Varioskan LUX Multimode microplate reader. The planktonic plate was then discarded. The original challenge plate containing the biofilms was washed once with PBS, and 200 μL of a 20 μM resazurin solution was added to the wells. The plate was incubated in the dark at 37 °C with shaking (220 rpm) for 30 min with S. aureus, 60 min with A. baumannii, and 90 min with P. aeruginosa. Fluorescence was measured as described for the planktonic solution. The biofilms were next treated with crystal violet staining.
(§3) After removing the resazurin solution from the plate, biofilms were fixed with ethanol 100% for 15 min at room temperature. Ethanol was then removed, and the biofilms were left to air-dry completely at RT. Crystal violet, diluted to 1:100 in deionized water from the 2.3% commercial solution (HT90132, Sigma-Aldrich, St. Louis, MO), was added to the wells and, after a 5 min incubation with the dye, the biofilms were washed twice with deionized water and left to air-dry for about 10 min. The dye was solubilized in ethanol 100% for 1 h, and absorbance was measured at 595 nm using a Multiskan Sky microplate spectrophotometer (Thermo Scientific, Vantaa, Finland).

S. aureus P2 = test: Antibacterial activity, pre-exposure; format: cell-based, Staphylococcus aureus; details: for Average inhibition %, biofilms viability / Average inhibition %, planktonic cells viability / inhibition at 5 µM / inhibition at 10 µM / inhibition at 15 µM / inhibition at 25 µM: S. aureus P2, pre-exposure, ± SD; for MIC / inhibition at 5 µM / inhibition at 10 µM / inhibition at 15 µM / inhibition at 25 µM: Staphylococcus aureus; for MIC: P2, pre-exposure, 18 h
Procedure: as §1, §2, §3

[1] = Cytotoxicity, resazurin staining assay; format: cell-based, human; details: human, 24 h incubation
Procedure: The cytotoxicity of the compounds was assessed on the three different human cell lines, A549, HEp-2, and HL-60, using the redox-based resazurin staining assay. The cells were seeded in clear 96-well plates at a density of 1 × 10^4 cells per well in a volume of 200 μL per well. The adherent cells were let to attach for 24 h before changing the media and adding the compounds (final concentration of 0.25% DMSO). HL-60 were counted and added to the plates at a density of 1 × 10^4 cells per well in a volume of 200 μL directly with the compounds. Untreated cells were used as negative controls, and cells treated with 1% TritonX-100 (Sigma-Aldrich, St. Louis, MO) were used as positive controls for cytotoxicity. The cells were incubated with the compounds for 24 h.
For the resazurin assay, the media was first removed, and the adherent cells were washed once with PBS. Then, 200 μL of 20 μM resazurin was added per well and cells were incubated for two more hours before the measurement of fluorescence, as mentioned earlier. For HL-60, 10 μL of 400 μM resazurin was added directly to the wells and the cells were incubated for an additional 4 h before the measurement of fluorescence.

[2] = 5 µM, read-out: Average inhibition %, biofilms biomass
[3] = 5 µM, read-out: Average inhibition %, planktonic cells turbidity
[4] = 10 µM, read-out: Average inhibition %, biofilms biomass
[5] = 10 µM, read-out: Average inhibition %, planktonic cells turbidity
[6] = 15 µM, read-out: Average inhibition %, biofilms biomass
[7] = 15 µM, read-out: Average inhibition %, planktonic cells turbidity
[8] = 25 µM, read-out: Average inhibition %, biofilms biomass
[9] = 25 µM, read-out: Average inhibition %, planktonic cells turbidity

CCCCCCCCCCc1ccc(C(O)CC(N)(CO)CO)cc1 (centres unmarked) [Compound 55, 3-Amino-3-(hydroxymethyl)-1-(4-decylphenyl)butane-1,4-diol]
Average inhibition %, biofilms viability (S. aureus ATCC 12598; 5 µM): 15.2 ± 6.4% | Average inhibition %, planktonic cells viability (S. aureus ATCC 12598; 5 µM): 7.6 ± 8.8% | Average inhibition %, biofilms viability (S. aureus ATCC 12598; 10 µM): 99.2 ± 0.1% | Average inhibition %, planktonic cells viability (S. aureus ATCC 12598; 10 µM): 99.8 ± 0% | Average inhibition %, biofilms viability (S. aureus ATCC 12598; 15 µM): 99.5 ± 0.3% | Average inhibition %, planktonic cells viability (S. aureus ATCC 12598; 15 µM): 99.7 ± 0% | Average inhibition %, biofilms viability (S. aureus ATCC 12598; 25 µM): 99.6 ± 0% | Average inhibition %, planktonic cells viability (S. aureus ATCC 12598; 25 µM): 99.6 ± 0.1% | inhibition at 5 µM (S. aureus ATCC 12598; [2]): 27.6 ± 19.6% | inhibition at 5 µM (S. aureus ATCC 12598; [3]): 21.2 ± 6.5% | inhibition at 10 µM (S. aureus ATCC 12598; [4]): 94.3 ± 1.2% | inhibition at 10 µM (S. aureus ATCC 12598; [5]): 99.6 ± 0.1% | inhibition at 15 µM (S. aureus ATCC 12598; [6]): 93 ± 1.1% | inhibition at 15 µM (S. aureus ATCC 12598; [7]): 99.4 ± 0.2% | inhibition at 25 µM (S. aureus ATCC 12598; [8]): 90.2 ± 2.1% | inhibition at 25 µM (S. aureus ATCC 12598; [9]): 98.9 ± 0.3% | MIC (S. aureus ATCC 12598): 10 µM (≈ 3.52 µg/mL) | Average inhibition %, biofilms viability (S. aureus P2; 5 µM): 32.1 ± 8.5% | Average inhibition %, planktonic cells viability (S. aureus P2; 5 µM): 3.4 ± 5.8% | Average inhibition %, biofilms viability (S. aureus P2; 10 µM): 99.4 ± 0.2% | Average inhibition %, planktonic cells viability (S. aureus P2; 10 µM): 99.8 ± 0% | Average inhibition %, biofilms viability (S. aureus P2; 15 µM): 99.6 ± 0% | Average inhibition %, planktonic cells viability (S. aureus P2; 15 µM): 99.6 ± 0.1% | Average inhibition %, biofilms viability (S. aureus P2; 25 µM): 99.6 ± 0% | Average inhibition %, planktonic cells viability (S. aureus P2; 25 µM): 99.5 ± 0.1% | MIC (S. aureus P2): 10 µM (≈ 3.52 µg/mL) | inhibition at 5 µM (S. aureus P2; [2]): 23.6 ± 10.9% | inhibition at 5 µM (S. aureus P2; [3]): 14 ± 3% | inhibition at 10 µM (S. aureus P2; [4]): 96.5 ± 0.7% | inhibition at 10 µM (S. aureus P2; [5]): 99.6 ± 0.1% | inhibition at 15 µM (S. aureus P2; [6]): 95.1 ± 0.2% | inhibition at 15 µM (S. aureus P2; [7]): 99.3 ± 0.1% | inhibition at 25 µM (S. aureus P2; [8]): 91.6 ± 1.2% | inhibition at 25 µM (S. aureus P2; [9]): 98.8 ± 0.2% | CC50 at 24 h ([1]; A549 cells): 35.3 ± 5.1 µM | CC50 at 24 h ([1]; HEp-2 cells): 33.9 ± 1.2 µM | CC50 at 24 h ([1]; HL-60 cells): 7.4 ± 6.9 µM

CCCCCCCCCCc1ccc(CCC(N)(CO)CO)nc1 [Compound 62, 2-Amino-2-[2-(5-decylpyridin-2-yl)ethyl]propane-1,3-diol]
CC50 at 24 h ([1]; A549 cells): 27.6 ± 6.4 µM | CC50 at 24 h ([1]; HEp-2 cells): 30.9 ± 6.2 µM | CC50 at 24 h ([1]; HL-60 cells): 3.6 ± 0.4 µM

CCCCCCCCc1ccc2ccc(CC(N)(CO)CO)nc2c1 [Compound 82, 2-Amino-2-[(7-octylquinolin-2-yl)methyl]propane-1,3-diol]
Average inhibition %, biofilms viability (S. aureus ATCC 12598; 5 µM): 12.2 ± 12.8% | Average inhibition %, planktonic cells viability (S. aureus ATCC 12598; 5 µM): 13.3 ± 5% | Average inhibition %, biofilms viability (S. aureus ATCC 12598; 10 µM): 99.1 ± 0.2% | Average inhibition %, planktonic cells viability (S. aureus ATCC 12598; 10 µM): 99.8 ± 0% | Average inhibition %, biofilms viability (S. aureus ATCC 12598; 15 µM): 99.5 ± 0% | Average inhibition %, planktonic cells viability (S. aureus ATCC 12598; 15 µM): 99.7 ± 0% | Average inhibition %, biofilms viability (S. aureus ATCC 12598; 25 µM): 99.7 ± 0.1% | Average inhibition %, planktonic cells viability (S. aureus ATCC 12598; 25 µM): 99.6 ± 0.1% | inhibition at 5 µM (S. aureus ATCC 12598; [2]): 26.3 ± 11.6% | inhibition at 5 µM (S. aureus ATCC 12598; [3]): 20.6 ± 8.5% | inhibition at 10 µM (S. aureus ATCC 12598; [4]): 94.4 ± 1.7% | inhibition at 10 µM (S. aureus ATCC 12598; [5]): 99.6 ± 0.1% | inhibition at 15 µM (S. aureus ATCC 12598; [6]): 97.1 ± 1.1% | inhibition at 15 µM (S. aureus ATCC 12598; [7]): 99.7% | inhibition at 25 µM (S. aureus ATCC 12598; [8]): 94.6 ± 1.4% | inhibition at 25 µM (S. aureus ATCC 12598; [9]): 99.4 ± 0.2% | MIC (S. aureus ATCC 12598): 10 µM (≈ 3.44 µg/mL) | Average inhibition %, biofilms viability (S. aureus P2; 5 µM): 23.7 ± 8.8% | Average inhibition %, planktonic cells viability (S. aureus P2; 5 µM): 1 ± 1.8% | Average inhibition %, biofilms viability (S. aureus P2; 10 µM): 99.5 ± 0% | Average inhibition %, planktonic cells viability (S. aureus P2; 10 µM): 99.8 ± 0% | Average inhibition %, biofilms viability (S. aureus P2; 15 µM): 99.8 ± 0% | Average inhibition %, planktonic cells viability (S. aureus P2; 15 µM): 99.6 ± 0% | Average inhibition %, biofilms viability (S. aureus P2; 25 µM): 99.7 ± 0.1% | Average inhibition %, planktonic cells viability (S. aureus P2; 25 µM): 99.5 ± 0% | MIC (S. aureus P2): 10 µM (≈ 3.44 µg/mL) | inhibition at 5 µM (S. aureus P2; [2]): 39.9 ± 7% | inhibition at 5 µM (S. aureus P2; [3]): 5 ± 2.2% | inhibition at 10 µM (S. aureus P2; [4]): 97.6 ± 0.4% | inhibition at 10 µM (S. aureus P2; [5]): 99.6% | inhibition at 15 µM (S. aureus P2; [6]): 97.2 ± 0.8% | inhibition at 15 µM (S. aureus P2; [7]): 99.7% | inhibition at 25 µM (S. aureus P2; [8]): 96.4 ± 0.6% | inhibition at 25 µM (S. aureus P2; [9]): 99.4 ± 0.1% | CC50 at 24 h ([1]; A549 cells): 27.5 ± 3 µM | CC50 at 24 h ([1]; HEp-2 cells): 28.8 ± 1.8 µM | CC50 at 24 h ([1]; HL-60 cells): 6.5 ± 0.8 µM
